Test results reported in ChEMBL document CHEMBL1201862, “PubChem BioAssay data set” (2004).
Active and inactive are the calls of the source.

Assays:
[1] = molecular target: Luciferin 4-monooxygenase (Photinus pyralis, UniProt P08659); experiment: Counter Screen for Luciferase-based Assay Positives. [Related pubchem assays: 620, 618, 411 ]
[2] = molecular target: T1, DNA repair and recombination protein RAD54-like (Homo sapiens, UniProt Q92698); experiment: inhibitors of human RAD54 branch migration, confirmation, biochemical, fluorescence, cherry-picked samples, dose series (AID 651657); assay type: functional
T1 sequence (Q92698 whole entry): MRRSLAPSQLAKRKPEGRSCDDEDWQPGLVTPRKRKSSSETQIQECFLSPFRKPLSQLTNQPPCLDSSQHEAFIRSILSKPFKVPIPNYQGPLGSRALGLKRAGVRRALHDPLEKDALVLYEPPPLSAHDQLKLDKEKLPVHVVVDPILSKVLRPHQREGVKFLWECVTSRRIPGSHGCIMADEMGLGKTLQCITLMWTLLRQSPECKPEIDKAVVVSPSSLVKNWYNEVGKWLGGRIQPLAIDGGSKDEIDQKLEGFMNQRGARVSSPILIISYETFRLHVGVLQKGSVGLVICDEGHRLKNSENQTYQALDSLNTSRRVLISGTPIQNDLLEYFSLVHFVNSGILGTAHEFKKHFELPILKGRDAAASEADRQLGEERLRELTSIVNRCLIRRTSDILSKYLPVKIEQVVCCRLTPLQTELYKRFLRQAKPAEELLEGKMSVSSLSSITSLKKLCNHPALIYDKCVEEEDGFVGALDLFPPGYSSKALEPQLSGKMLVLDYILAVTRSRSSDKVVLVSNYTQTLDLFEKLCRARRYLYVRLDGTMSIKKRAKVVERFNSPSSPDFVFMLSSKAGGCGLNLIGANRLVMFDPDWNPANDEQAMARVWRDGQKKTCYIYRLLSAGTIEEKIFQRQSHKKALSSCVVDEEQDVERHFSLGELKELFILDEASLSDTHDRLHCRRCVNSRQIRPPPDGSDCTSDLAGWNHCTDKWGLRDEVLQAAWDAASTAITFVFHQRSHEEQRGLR

[3] = molecular target: Sphingosine 1-phosphate receptor 2 (Homo sapiens, UniProt O95136); experiment: Dose Response Cell-Based Assay for Agonists of the Sphingosine 1-Phosphate Receptor 2 (S1P2): Purchased Analogues. [Related pubchem assays: 1192, 373, 439 ]; assay type: functional
Sequence of Sphingosine 1-phosphate receptor 2 (O95136 whole entry): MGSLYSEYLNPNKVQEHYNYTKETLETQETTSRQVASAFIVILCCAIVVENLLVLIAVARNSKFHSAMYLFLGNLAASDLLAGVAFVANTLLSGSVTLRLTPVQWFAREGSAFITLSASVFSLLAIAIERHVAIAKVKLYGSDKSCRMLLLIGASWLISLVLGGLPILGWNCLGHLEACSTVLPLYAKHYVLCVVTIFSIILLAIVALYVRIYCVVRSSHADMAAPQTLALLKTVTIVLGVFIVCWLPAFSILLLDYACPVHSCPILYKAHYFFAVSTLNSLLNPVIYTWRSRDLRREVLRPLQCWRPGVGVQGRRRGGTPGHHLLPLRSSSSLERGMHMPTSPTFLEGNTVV

[4] = molecular target: Sphingosine 1-phosphate receptor 1 (Homo sapiens, UniProt P21453); experiment: Dose Response Cell-Based Assay for Agonists of the Sphingosine 1-Phosphate Receptor 1 (S1P1): Purchased Analogues. [Related pubchem assays: 1192, 373, 439 ]; assay type: functional
Sequence of Sphingosine 1-phosphate receptor 1 (P21453 whole entry): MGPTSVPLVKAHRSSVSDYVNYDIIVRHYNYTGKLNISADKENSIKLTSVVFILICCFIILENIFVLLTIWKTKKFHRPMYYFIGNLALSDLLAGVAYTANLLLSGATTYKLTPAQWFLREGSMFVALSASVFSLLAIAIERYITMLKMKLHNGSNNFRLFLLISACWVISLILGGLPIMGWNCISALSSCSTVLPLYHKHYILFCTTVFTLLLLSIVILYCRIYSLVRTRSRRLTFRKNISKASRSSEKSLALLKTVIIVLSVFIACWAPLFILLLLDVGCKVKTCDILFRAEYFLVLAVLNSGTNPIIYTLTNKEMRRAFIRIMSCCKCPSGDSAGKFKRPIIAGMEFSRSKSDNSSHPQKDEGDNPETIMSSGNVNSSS

[5] = molecular target: Sphingosine 1-phosphate receptor 3 (Homo sapiens, UniProt Q99500); experiment: Dose Response Cell-Based Assay for Agonists of the Sphingosine 1-Phosphate Receptor 3 (S1P3): Purchased Analogues. [Related pubchem assays: 373, 439 ]; assay type: functional
Sequence of Sphingosine 1-phosphate receptor 3 (Q99500 whole entry): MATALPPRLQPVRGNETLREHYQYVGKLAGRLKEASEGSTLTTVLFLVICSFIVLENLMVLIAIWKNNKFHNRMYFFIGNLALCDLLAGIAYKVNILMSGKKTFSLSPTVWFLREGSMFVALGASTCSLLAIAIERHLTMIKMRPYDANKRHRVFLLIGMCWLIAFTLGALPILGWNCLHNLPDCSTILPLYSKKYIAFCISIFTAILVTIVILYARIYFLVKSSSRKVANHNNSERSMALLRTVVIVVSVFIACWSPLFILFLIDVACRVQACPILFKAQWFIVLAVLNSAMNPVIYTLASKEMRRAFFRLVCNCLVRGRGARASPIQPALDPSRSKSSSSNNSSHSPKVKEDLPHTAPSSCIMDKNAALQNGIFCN

[6] = Luminescence Cell-Based Dose Confirmation HTS to Identify Inhibitors of Polyadenylation.; assay type: functional
[7] = molecular target: T2, Delta-type opioid receptor (Homo sapiens, UniProt P41143); experiment: HTS Image-Based Screen for Agonists of the DOR Receptor. [Related pubchem assays (depositor defined):AID1777, AID1786, AID2133]; assay type: functional
T2 sequence (P41143 whole entry): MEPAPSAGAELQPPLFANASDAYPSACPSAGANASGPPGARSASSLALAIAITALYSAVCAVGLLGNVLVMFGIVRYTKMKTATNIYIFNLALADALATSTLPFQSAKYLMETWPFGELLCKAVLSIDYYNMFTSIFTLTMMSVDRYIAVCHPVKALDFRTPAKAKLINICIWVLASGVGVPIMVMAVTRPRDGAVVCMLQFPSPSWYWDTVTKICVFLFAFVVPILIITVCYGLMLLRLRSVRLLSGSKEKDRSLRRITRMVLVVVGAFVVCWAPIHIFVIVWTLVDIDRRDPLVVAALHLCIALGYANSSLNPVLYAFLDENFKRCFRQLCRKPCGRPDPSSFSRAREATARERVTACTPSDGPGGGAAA

Beta-galactosidase [8] = molecular target: T3, Beta-galactosidase (Escherichia coli, UniProt Q8VNN2); experiment: PubChem AID 485352; assay type: functional
T3 sequence (Q8VNN2 whole entry): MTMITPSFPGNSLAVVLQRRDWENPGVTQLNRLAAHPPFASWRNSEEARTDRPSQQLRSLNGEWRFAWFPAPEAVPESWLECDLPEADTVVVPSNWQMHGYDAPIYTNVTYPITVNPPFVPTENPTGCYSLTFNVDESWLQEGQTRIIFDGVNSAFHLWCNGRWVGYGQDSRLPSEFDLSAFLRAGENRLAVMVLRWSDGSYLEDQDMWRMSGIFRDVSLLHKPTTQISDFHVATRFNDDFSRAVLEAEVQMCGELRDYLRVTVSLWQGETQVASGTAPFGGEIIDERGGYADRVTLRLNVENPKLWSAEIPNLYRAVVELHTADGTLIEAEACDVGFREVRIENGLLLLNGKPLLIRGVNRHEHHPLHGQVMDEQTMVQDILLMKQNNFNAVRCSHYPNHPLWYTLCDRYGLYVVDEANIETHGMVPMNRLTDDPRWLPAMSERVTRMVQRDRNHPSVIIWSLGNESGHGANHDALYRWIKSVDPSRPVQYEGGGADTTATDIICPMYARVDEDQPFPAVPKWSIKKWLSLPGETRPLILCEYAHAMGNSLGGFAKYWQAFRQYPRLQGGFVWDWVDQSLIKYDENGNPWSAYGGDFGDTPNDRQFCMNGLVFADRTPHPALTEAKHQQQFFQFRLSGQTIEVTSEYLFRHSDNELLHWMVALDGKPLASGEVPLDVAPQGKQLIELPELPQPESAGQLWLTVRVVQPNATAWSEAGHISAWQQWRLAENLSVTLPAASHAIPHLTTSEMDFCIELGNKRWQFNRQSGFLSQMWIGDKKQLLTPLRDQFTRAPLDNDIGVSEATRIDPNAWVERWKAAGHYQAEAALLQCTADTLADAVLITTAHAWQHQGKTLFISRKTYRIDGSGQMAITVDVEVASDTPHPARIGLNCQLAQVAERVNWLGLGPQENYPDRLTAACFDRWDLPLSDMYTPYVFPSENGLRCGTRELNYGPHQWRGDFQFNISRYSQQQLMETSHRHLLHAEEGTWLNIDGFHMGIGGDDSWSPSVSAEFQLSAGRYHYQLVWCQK

[9] = molecular target: T4, Kappa-type opioid receptor (Homo sapiens, UniProt P41145); assay type: functional
T4 sequence (P41145 whole entry): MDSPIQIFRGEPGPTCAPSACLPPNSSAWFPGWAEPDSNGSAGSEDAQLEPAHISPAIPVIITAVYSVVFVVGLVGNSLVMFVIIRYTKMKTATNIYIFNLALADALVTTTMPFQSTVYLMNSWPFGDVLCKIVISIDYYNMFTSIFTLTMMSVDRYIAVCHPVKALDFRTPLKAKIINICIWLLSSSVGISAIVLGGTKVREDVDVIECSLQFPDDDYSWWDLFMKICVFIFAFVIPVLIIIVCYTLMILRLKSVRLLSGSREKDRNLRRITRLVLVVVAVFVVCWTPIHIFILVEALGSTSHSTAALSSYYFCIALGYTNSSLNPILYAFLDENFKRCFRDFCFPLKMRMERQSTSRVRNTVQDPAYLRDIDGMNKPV

Vero [10] = experiment: host cell cytotoxicity of antiviral hits, dose response, cytotoxicity control for West Nile virus antiviral project, secondary assay (AID 1650); assay type: functional; conditions: Chlorocebus sabaeus
[11] = test system: Streptococcus sp. 'group A'; experiment: growth inhibition of control SK(-) GAS strain, dose response, counter-screen for streptokinase expression inhibitor project, luminescence, kanamycin, BacTiterGlo, confirmation (AID 1900); assay type: functional, organism-based
[12] = A Cell Based Secondary Assay To Explore Cytotoxicity of Compounds that Sensitize Mycobacterium Tuberculosis to Beta-Lactam Antibiotics.; assay type: functional
[13] = molecular target: T4, Kappa-type opioid receptor; assay type: functional; remark: listed apart in the source
Mu-type opioid receptor = Mu-type opioid receptor (Homo sapiens, UniProt P35372); experiment: HTS Image-Based Screen for Agonists of the MOR Receptor. [Related pubchem assays (depositor defined):AID1777, AID1785, AID1786, AID2133]; assay type: functional;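 also: imaging of beta-arrestin GFP recruitment into spots after receptor activation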
Sequence of Mu-type opioid receptor (P35372 whole entry): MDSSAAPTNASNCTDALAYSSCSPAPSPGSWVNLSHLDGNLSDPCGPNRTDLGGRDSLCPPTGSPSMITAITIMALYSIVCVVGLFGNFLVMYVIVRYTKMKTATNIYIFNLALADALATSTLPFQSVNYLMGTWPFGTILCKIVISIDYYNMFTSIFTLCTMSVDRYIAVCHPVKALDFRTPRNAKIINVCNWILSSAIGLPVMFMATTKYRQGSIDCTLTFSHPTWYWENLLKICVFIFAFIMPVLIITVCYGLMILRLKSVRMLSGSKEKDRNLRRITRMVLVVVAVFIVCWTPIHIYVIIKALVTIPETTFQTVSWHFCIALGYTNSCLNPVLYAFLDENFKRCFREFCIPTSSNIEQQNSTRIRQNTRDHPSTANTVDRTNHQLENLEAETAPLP

Streptococcus = experiment: Group A Streptococcus viability loss, dose response, counter-screen for streptokinase expression inhibitor project, luminescence, BacTiterGlo (AID 1915); assay type: functional, organism-based;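 also: potency for reduction of bacterial viability or growth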
[14] = molecular target: T2, Delta-type opioid receptor; experiment: HTS Image-Based Screen for Antagonists of the DOR Receptor. [Related pubchem assays (depositor defined):AID1777, AID1785, AID1786, AID2133]; assay type: functional
Vero [15] = experiment: cells; assay type: functional; conditions: Chlorocebus sabaeus
[16] = molecular target: T5, Type-1 angiotensin II receptor (Homo sapiens, UniProt P30556); experiment: AT1 receptor antagonists, dose response, selectivity assay for APJ receptor antagonist project, cell-based, uHTS hits (AID 463214); assay type: functional;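 also: antagonist potency against angiotensin II stimulated AT1 response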
T5 sequence (P30556 whole entry): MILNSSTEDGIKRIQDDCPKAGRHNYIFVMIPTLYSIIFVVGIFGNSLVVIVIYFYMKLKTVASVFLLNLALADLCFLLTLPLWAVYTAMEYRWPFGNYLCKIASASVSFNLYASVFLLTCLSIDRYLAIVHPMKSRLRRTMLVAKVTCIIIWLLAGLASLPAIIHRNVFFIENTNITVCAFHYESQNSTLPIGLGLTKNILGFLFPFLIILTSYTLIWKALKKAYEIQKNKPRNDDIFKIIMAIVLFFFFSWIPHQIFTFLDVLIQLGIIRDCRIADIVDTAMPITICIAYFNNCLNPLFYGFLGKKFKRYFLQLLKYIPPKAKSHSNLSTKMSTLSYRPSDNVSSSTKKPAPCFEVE

Streptokinase A = molecular target: T6, Streptokinase A (Streptococcus pyogenes serotype M1, UniProt P10520); experiment: S. pyogenes streptokinase expression inhibitors, potency, dose response, plasminogen activation absorbance, OD405 (AID 1914); assay type: functional, Streptococcus pyogenes M1 GAS;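 also: secreted streptokinase activity via plasminogen activation per viability signal from cell pellet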
T6 sequence (P10520 whole entry): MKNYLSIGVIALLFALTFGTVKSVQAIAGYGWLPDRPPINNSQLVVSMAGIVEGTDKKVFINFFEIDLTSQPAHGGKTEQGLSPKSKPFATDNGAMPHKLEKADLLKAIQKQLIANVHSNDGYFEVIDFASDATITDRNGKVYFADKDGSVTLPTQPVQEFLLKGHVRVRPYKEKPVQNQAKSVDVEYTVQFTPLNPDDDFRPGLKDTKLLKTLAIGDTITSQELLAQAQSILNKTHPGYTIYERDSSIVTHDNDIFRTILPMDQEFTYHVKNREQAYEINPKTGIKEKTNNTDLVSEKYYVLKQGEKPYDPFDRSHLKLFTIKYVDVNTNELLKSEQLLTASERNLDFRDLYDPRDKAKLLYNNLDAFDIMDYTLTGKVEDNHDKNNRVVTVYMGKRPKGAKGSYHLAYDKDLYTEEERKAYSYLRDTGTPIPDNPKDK

Beta-galactosidase [17] = molecular target: T3, Beta-galactosidase; assay type: functional
Vero [18] = experiment: cells; assay type: functional, cell-based; conditions: Chlorocebus sabaeus
[19] = molecular target: Epstein-Barr nuclear antigen 1 (Epstein-Barr virus (strain B95-8) (HHV-4) (Human herpesvirus 4), UniProt P03211); experiment: EBNA-1 inhibitors, dose response, biochemical, fluorescence polarization, 1536-well (AID 2381); design: species or system human gammaherpesvirus 4;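 also: fluorescence polarization of a Cy5 DNA probe bound by EBNA-1 protein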
Sequence of Epstein-Barr nuclear antigen 1 (P03211 whole entry, the tested form may be a part): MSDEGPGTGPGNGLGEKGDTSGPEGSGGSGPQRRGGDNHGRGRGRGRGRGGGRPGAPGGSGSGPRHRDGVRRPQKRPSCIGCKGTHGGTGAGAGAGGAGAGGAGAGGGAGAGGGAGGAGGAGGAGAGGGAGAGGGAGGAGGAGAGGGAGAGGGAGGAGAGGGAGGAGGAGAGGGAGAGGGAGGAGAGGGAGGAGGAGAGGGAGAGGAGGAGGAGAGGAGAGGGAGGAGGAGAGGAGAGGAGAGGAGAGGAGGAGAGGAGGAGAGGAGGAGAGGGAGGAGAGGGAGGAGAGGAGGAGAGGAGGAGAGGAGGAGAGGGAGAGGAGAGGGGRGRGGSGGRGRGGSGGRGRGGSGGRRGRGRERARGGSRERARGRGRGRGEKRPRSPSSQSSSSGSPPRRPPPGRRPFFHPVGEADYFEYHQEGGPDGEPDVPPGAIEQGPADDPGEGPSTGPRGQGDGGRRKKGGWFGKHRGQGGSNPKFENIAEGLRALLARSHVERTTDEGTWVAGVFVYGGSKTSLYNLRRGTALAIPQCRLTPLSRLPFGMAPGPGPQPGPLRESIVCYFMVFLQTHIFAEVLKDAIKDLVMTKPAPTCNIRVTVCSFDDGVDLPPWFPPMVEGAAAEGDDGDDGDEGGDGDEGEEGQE

[20] = molecular target: T7, Oxysterols receptor LXR-beta (Homo sapiens, UniProt P55055); assay type: functional, cell-based;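 also: agonist activity at LXR measured by a cell-based luminescence readout across a dose range, run as a counterscreen for daf-12 agonists; HEK293 cells with Gal4-LXR fusion and GAL4-driven luciferase reporter; potency for activation of Gal4-LXR reporter so compounds are agonists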
T7 sequence (P55055 whole entry): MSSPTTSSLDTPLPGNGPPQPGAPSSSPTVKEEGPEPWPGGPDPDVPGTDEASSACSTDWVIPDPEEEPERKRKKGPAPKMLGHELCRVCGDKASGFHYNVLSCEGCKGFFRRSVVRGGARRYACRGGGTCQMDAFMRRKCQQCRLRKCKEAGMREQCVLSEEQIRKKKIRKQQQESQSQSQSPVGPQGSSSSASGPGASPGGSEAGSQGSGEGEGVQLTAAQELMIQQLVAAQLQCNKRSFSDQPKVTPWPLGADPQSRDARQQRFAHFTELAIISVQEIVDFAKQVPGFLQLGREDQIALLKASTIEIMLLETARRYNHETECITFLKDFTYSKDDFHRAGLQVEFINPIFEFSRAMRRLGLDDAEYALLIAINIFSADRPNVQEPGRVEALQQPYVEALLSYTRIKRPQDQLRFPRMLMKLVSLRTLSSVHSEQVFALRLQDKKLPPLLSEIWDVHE

[21] = molecular target: Lytic switch protein BZLF1 (Epstein-Barr virus (strain B95-8) (HHV-4) (Human herpesvirus 4), UniProt P03206); experiment: EBV ZTA inhibitors, dose response, counter-screen for EBNA-1 inhibitor project, biochemical, fluorescence polarization, Epstein-Barr virus, 1536-well (AID 2377); design: species or system human gammaherpesvirus 4;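 also: fluorescence polarization of Cy5-labelled ZRE DNA probe bound by purified Zta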
Sequence of Lytic switch protein BZLF1 (P03206 whole entry): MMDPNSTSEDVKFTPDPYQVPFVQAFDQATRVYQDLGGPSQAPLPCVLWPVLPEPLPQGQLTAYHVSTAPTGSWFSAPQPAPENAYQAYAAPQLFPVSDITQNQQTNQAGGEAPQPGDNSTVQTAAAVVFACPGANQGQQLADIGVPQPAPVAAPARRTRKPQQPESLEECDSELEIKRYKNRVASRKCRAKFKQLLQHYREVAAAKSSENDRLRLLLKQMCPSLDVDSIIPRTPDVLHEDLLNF

Estrogen receptor = molecular target: T8, Estrogen receptor (Homo sapiens, UniProt P03372); experiment: ERα–SRC-3 coactivator interaction inhibitors, confirmation, orthogonal assay, biochemical, ELISA, streptavidin-HRP readout (AID 1079)
T8 sequence (P03372 whole entry): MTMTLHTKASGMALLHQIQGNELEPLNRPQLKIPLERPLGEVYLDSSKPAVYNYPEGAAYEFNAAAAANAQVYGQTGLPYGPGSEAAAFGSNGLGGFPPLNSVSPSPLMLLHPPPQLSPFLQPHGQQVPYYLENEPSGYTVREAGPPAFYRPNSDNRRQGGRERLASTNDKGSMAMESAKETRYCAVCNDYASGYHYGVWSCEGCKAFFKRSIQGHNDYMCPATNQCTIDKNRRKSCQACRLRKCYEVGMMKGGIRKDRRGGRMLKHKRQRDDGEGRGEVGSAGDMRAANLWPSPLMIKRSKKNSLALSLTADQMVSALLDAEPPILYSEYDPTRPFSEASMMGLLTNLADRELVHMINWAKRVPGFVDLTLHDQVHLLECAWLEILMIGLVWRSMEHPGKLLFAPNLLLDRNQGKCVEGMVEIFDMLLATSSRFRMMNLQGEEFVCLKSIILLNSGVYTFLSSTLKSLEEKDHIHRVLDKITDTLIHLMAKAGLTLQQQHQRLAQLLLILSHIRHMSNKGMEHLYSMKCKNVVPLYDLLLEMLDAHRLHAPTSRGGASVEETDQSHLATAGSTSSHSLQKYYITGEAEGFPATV

[22] = Luminescence-based dose response cell-based high throughput screening assay for cytotoxic compounds using the IEC-6 intestinal epithelial cell line. [Related pubchem assays: 1858 (Summary AID.), 1825 (Counterscreen.), 1907 (Confirmation screen.)]; assay type: functional
[23] = HEp-2 cell cytotoxicity, dose response, cytotoxicity control for RSV inhibitor project, HTS (AID 2410); assay type: functional; conditions: human respiratory syncytial virus
[24] = cytotoxicity toward NIH3T3 fibroblasts, dose response, counter-screen, cell-based, ATP luminescence, mouse fibroblasts (AID 2010); assay type: functional;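 also: cells exposed to compound for about 90 hours before reading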
[25] = inhibitors of intracellular T. cruzi replication, confirmation, NIH3T3 host cells, beta-gal luminescence (AID 2044); assay type: functional, cell-based;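 also: intracellular parasites grown in NIH/3T3 mouse fibroblasts as host cells; luminescent beta-galactosidase reporter signal from transgenic T. cruzi replicating inside host cells; inhibitors lower the luminescence signal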
[26] = molecular target: T9, Rac GTPase-activating protein 1 (Homo sapiens, UniProt Q9H0H5); experiment: MgcRacGAP GTPase-activating activity inhibitors, confirmation, biochemical, ADP Hunter fluorescence, primary and confirmatory (AID 624330); assay type: functional
T9 sequence (Q9H0H5 whole entry): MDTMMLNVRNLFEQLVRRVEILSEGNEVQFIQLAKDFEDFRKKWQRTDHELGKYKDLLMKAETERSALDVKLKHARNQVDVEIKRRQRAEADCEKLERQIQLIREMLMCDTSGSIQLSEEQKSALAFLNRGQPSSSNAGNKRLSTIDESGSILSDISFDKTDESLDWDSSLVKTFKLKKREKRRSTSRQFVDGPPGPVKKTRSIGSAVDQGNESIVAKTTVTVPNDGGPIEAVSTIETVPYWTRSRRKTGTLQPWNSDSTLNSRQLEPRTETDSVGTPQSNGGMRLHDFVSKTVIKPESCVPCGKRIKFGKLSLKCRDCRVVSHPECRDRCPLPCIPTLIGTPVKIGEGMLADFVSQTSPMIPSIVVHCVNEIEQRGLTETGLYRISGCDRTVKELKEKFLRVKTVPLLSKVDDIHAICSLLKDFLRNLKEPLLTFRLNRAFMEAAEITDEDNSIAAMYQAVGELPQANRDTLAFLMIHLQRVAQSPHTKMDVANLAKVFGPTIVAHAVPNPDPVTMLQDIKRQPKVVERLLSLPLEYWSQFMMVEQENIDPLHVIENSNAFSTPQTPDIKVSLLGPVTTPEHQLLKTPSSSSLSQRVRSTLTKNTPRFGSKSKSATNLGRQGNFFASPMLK

Sequence of Luciferin 4-monooxygenase (P08659 whole entry): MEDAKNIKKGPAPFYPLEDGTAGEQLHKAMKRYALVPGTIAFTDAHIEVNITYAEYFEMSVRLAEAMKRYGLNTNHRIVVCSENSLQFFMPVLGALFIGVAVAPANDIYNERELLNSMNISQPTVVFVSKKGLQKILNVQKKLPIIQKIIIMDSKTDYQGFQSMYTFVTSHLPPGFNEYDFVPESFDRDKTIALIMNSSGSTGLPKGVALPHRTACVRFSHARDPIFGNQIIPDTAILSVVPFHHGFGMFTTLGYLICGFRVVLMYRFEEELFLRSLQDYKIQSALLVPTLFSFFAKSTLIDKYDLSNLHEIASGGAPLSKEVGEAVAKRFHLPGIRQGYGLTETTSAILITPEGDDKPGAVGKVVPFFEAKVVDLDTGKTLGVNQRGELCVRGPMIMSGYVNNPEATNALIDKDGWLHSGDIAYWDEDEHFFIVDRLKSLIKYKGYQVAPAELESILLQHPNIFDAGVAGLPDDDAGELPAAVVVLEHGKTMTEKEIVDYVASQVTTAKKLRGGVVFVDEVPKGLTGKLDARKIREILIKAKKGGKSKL

## COc1ccc2nc(-c3ccc(N)cc3)[nH]c2c1
[1]
  EC50: 0.38 µM (active)
[2]
  AC50: 35.1 µM (active)

## Cc1ccc(-c2cc(C(=O)NC3CCCCC3)no2)cc1
[3]
  EC50: > 10 µM (not active)
[4]
  EC50: 0.194 µM (active)
[5]
  EC50: > 50 µM (not active)

## Cc1ccc(S(=O)(=O)Nc2cccc3cccnc23)c([N+](=O)[O-])c1
[6]
  EC50: > 120 µM (not active)
[7]
  EC50: > 32 µM (inactive)
Beta-galactosidase [8]
  EC50: > 40 µM (inactive)
[9]
  IC50: 5.55 µM (active)
Vero [10]
  CC50: 5.79 µM (active)
[11]
  EC50: 0.707 µM (active)
[12]
  CC50: 5.64 µM (active)
[13]
  IC50: > 32 µM
Mu-type opioid receptor
  EC50: > 32 µM (inactive)
Streptococcus
  EC50: 17.4 µM (active)
[14]
  IC50: > 32 µM (inactive)
Vero [15]
  CC50: 7.85 µM (active)
[16]
  IC50: 8.21 µM (active)
Streptokinase A
  EC50: > 150 µM (not active)
Beta-galactosidase [17]
  EC50: > 31.5 µM (inactive)
Vero [18]
  IC50: 18.4 µM (active)

## COc1ccc2oc(C(=O)Nc3nccs3)c(C)c2c1
[19]
  IC50: 21 µM (not active)
[20]
  EC50: > 67.5 µM (inactive)
[21]
  IC50: > 111 µM (not active)

## COC(=O)c1ccc2c(=O)n(CCCC(=O)N3CCN(c4cccc(Cl)c4)CC3)c(=S)[nH]c2c1
Estrogen receptor
  IC50: 18.7 µM (not active)

## O=C(N/N=C/c1ccc(O)cc1)Nc1cccc2nsnc12
[22]
  IC50: 2.51 µM (active)
[23]
  CC50: > 50 µM (active)
[24]
  EC50: 10.8 µM (active)
[25]
  EC50: 0.356 µM (active)
[26]
  IC50: 63.5 µM (active)
